According to ChEMBL document CHEMBL1201862, “PubChem BioAssay data set” (2004):
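How tested: cells in 96-well plates exposed to compound for 48 hours at five concentrations. GI50 marks 50% less growth.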 Calls of active or inactive are those of the source. Rule as the data show it: active = GI50 up to about 1.1 µM and inactive = higher.

What was measured:
Experiment in all cases: NCI-60 cell line screen, 48 h
[1] = tested on: HOP-18
[2] = tested on: ACHN
[3] = tested on: NCI-H460
[4] = tested on: Malme-3M
[5] = tested on: LXFL 529
[6] = tested on: HT-29
[7] = tested on: A498
[8] = tested on: SK-MEL-28
[9] = tested on: RPMI-8226
[10] = tested on: KM12
[11] = tested on: UO-31
[12] = tested on: M14
[13] = tested on: M19-MEL
[14] = tested on: A549
[15] = tested on: RXF 631
[16] = tested on: NCI-H23
[17] = tested on: HL-60
[18] = tested on: SN12C
[19] = tested on: NCI-H522
[20] = tested on: SK-MEL-2
[21] = tested on: SF-539
[22] = tested on: SNB-75
[23] = tested on: TK-10
[24] = tested on: LOX IMVI
[25] = tested on: NCI-H226
[26] = tested on: COLO 205
[27] = tested on: HOP-92
[28] = tested on: OVCAR-4
[29] = tested on: DLD-1
[30] = tested on: HCT-15
[31] = tested on: OVCAR-5
[32] = tested on: HCT-116
[33] = tested on: K562
[34] = tested on: DMS-273
[35] = tested on: EKVX
[36] = tested on: CCRF-CEM
[37] = tested on: OVCAR-8
[38] = tested on: SNB-19
[39] = tested on: SK-OV-3
[40] = tested on: SR
[41] = tested on: HOP-62
[42] = tested on: SF-295
[43] = tested on: HCC 2998
[44] = tested on: U-251
[45] = tested on: KM-20L2
[46] = tested on: UACC-62
[47] = tested on: SW-620
[48] = tested on: RXF 393
[49] = tested on: IGROV-1
[50] = tested on: SK-MEL-5
[51] = tested on: SNB-78
[52] = tested on: 786-0
[53] = tested on: CAKI-1
[54] = tested on: UACC-257
[55] = tested on: SF-268
[56] = tested on: OVCAR-3
[57] = tested on: DMS-114

Cc1cc(Cl)ccc1N1C(=O)C(=O)C(c2nc3ccccc3s2)/C(=N\NC(=O)c2ccccc2O)C1=O (configuration not stated)
GI50 [1]: > 100 µM (inactive)
GI50 [2]: > 100 µM (inactive)
GI50 [3]: > 100 µM (inactive)
GI50 [4]: > 100 µM (inactive)
GI50 [5]: > 100 µM (inactive)
GI50 [6]: > 100 µM (inactive)
GI50 [7]: > 100 µM (inactive)
GI50 [8]: > 100 µM (inactive)
GI50 [9]: > 100 µM (inactive)
GI50 [10]: > 100 µM (inactive)
GI50 [11]: > 100 µM (inactive)
GI50 [12]: > 100 µM (inactive)
GI50 [13]: > 100 µM (inactive)
GI50 [14]: > 100 µM (inactive)
GI50 [15]: > 100 µM (inactive)
GI50 [16]: > 100 µM (inactive)
GI50 [17]: > 100 µM (inactive)
GI50 [18]: > 100 µM (inactive)
GI50 [19]: > 100 µM (inactive)
GI50 [20]: > 100 µM (inactive)
GI50 [21]: > 100 µM (inactive)
GI50 [22]: > 100 µM (inactive)
GI50 [23]: > 100 µM (inactive)
GI50 [24]: > 100 µM (inactive)
GI50 [25]: > 100 µM (inactive)
GI50 [26]: > 100 µM (inactive)
GI50 [27]: 46.7 µM (inactive)
GI50 [28]: > 100 µM (inactive)
GI50 [29]: > 100 µM (inactive)
GI50 [30]: > 100 µM
GI50 [31]: > 100 µM (inactive)
GI50 [32]: > 100 µM (inactive)
GI50 [33]: > 100 µM (inactive)
GI50 [34]: > 100 µM (inactive)
GI50 [35]: > 100 µM (inactive)
GI50 [36]: > 100 µM (inactive)
GI50 [37]: > 100 µM (inactive)
GI50 [38]: > 100 µM (inactive)
GI50 [39]: > 100 µM (inactive)
GI50 [40]: > 100 µM (inactive)
GI50 [41]: > 100 µM (inactive)
GI50 [42]: > 100 µM (inactive)
GI50 [43]: > 100 µM (inactive)
GI50 [44]: > 100 µM (inactive)
GI50 [45]: > 100 µM (inactive)
GI50 [46]: > 100 µM (inactive)
GI50 [47]: > 100 µM (inactive)
GI50 [48]: > 100 µM (inactive)
GI50 [49]: > 100 µM (inactive)
GI50 [50]: > 100 µM (inactive)
GI50 [51]: > 100 µM (inactive)
GI50 [52]: > 100 µM (inactive)
GI50 [53]: > 100 µM (inactive)
GI50 [54]: > 100 µM (inactive)
GI50 [55]: > 100 µM (inactive)
GI50 [56]: > 100 µM (inactive)
GI50 [57]: > 100 µM (inactive)
